Test results taken from patent US11358969B2, “Indole AHR inhibitors and uses thereof” (Ikena Oncology, Inc., priority 2017, dated 2022).

Experiments:
[1] = Mouse Pharmacokinetic Study (Example 1C); type: in vivo; conditions: mouse, plasma, CD-1 mice; for Vd: read-out: Vdss
In short: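 CD-1 mice dosed intravenously or by oral gavage; plasma sampled at 0.167, 0.5, 1, 2, 4, 6, 12 and 24 h post-dose. Samples analyzed by LC/MS/MS (MRM, positive mode) against a plasma standard curve of 1.0–3000 ng/mL; PK parameters from non-compartmental analysis.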

[2] = system: CD3/CD28 activated human T cells; assay: T-Cell Study with I-70 (Example 1F); type: cell-based; conditions: human T cells activated with CD3/CD28 tetramer, 24 hours
Method: Human T cells were isolated by CD3 negative selection after isolation of PBMCs from blood of human donors via ficoll density gradient centrifugation. One million T cells were activated with 25 uL of CD3/CD28 tetramer (Stemcell) in the presence or absence of I-70 for 24 hours, after which media was removed and stored at −80 C for later cytokine analysis. Cells were then washed 2× with PBS, before isolating RNA according to the manufacturer's instructions for the RNAeasy mini kit (Qiagen).
RNA was converted to cDNA using VILO-IV RT mastermix (Thermofisher), and q-RT-PCR was performed to determine levels of IL-22 (Hs01574154_m1), Cyp1a1 (Hs01054797_g1), and GAPDH (Hs00266705_g1). Data was analyzed using the ddCT method whereby each sample is first normalized to GAPDH housekeeping gene before being normalized to control treatment.
Cytokine levels were determined utilizing the mesoscale discovery (MSD) platform (K15067L-2) and MSD analysis software according to the manufacturer's instructions. IL-22 protein levels are decreased and pro-inflammatory IL-2 protein levels are increased by treatment with I-70, as shown in FIG. 2.

[3] = system: CT26 murine colon carcinoma; assay: Efficacy study in the mouse colorectal cancer model CT26 (Example 1G); type: in vivo; conditions: CT26 in Balb/c mice, FIG. 3
Method: CT26 is a murine colon carcinoma cell line obtained from ATCC. CT26 cells were cultured in RPMI supplemented with 10% FBS. 5×10^5 CT26 cells in 100 μl PBS were implanted subcutaneously in 6-8 week old female, Balb/c mice. Dosing for the efficacy study starts 4 days post implant: AHR antagonist was dosed orally, every day (QD) at or 10 mg/kg for 3 weeks. anti-PD-1 (BioXcell RMP1-14) was twice a week, intraperitoneally (IP) at 10 mg/kg for five total doses. Tumors were monitored by caliper measurement every 2-3 days and body weight measured three times per week.

Row | bioavailability ([1]; po, 30 mg/kg) | AUC(0-inf) ([1]; iv, 3 mg/kg) | AUC(0-t) ([1]; iv, 3 mg/kg) | clearance ([1]; iv, 3 mg/kg) | half-life ([1]; iv, 3 mg/kg) | Vd ([1]; iv, 3 mg/kg) | AUC(0-inf) ([1]; po, 30 mg/kg) | AUC(0-t) ([1]; po, 30 mg/kg) | Cmax ([1]; po, 30 mg/kg) | Tmax ([1]; po, 30 mg/kg) | half-life ([1]; po, 30 mg/kg) | cyp1a1 RNA expression levels ([2]; q-RT-PCR, FIG. 1) | SMILES | IL-22 protein levels ([2]; MSD platform, FIG. 2) | pro-inflammatory IL-2 protein levels ([2]; MSD platform, FIG. 2) | IL22 RNA expression levels ([2]; q-RT-PCR, FIG. 1) | Tumor growth ([3]; I-70 alone, orally QD 10 mg/kg for 3 weeks) | Tumor growth ([3]; I-70 in combination with anti-PD-1 (IP 10 mg/kg twice a week))
1 | 75% | 1.21 µg·h/mL | 1.07 µg·h/mL | 2.47 L/h/kg | 8.4 h | 24 L/kg | 9.14 µg·h/mL | 7.56 µg·h/mL | 0.853 µg/mL | 2 h | 8.8 h |  | CC(C)c1cnn2c(N[C@@H]3CCc4[nH]c5ccccc5c4C3)nc(-c3cncc(F)c3)nc12 [I-40, (3R)—N-[2-(5-Fluoro-3-pyridyl)-8-isopropyl-pyrazolo[1,5-a][1,3,5]triazin-4-yl]-2,3,4,9-tetrahydro-1H-carbazol-3-amine] |  |  |  |  | 
2 | 12% | 0.61 µg·h/mL | 0.554 µg·h/mL | 4.92 L/h/kg | 1.99 h | 9.6 L/kg | 0.743 µg·h/mL | 0.73 µg·h/mL | 0.182 µg/mL | 0.2 h | 3.9 h |  | CC(C)c1cnn2c(NCCc3c[nH]c4ccccc34)cc(-c3cncc(F)c3)nc12 [I-2, N-(2-(1H-indol-3-yl)ethyl)-5-(5-fluoropyridin-3-yl)-3-isopropylpyrazolo[1,5-a]pyrimidin-7-amine] |  |  |  |  | 
3 | 79% | 1.33 µg·h/mL | 1.2 µg·h/mL | 2.25 L/h/kg | 8.52 h | 19.6 L/kg | 10.6 µg·h/mL | 9.65 µg·h/mL | 1.41 µg/mL | 1 h | 7.16 h |  | Cc1cnn2c(N[C@@H]3CCc4[nH]c5ccccc5c4C3)nc(-c3cncc(F)c3)nc12 [I-201, (3R)—N-[2-(5-fluoro-3-pyridyl)-8-methyl-pyrazolo[1,5-a][1,3,5]triazin-4-yl]-2,3,4,9-tetrahydro-1H-carbazol-3-amine] |  |  |  |  | 
4 | 26% | 0.872 µg·h/mL | 0.862 µg·h/mL | 3.29 L/h/kg | 1.08 h | 3.2 L/kg | 1.99 µg·h/mL | 1.94 µg·h/mL | 0.9 µg/mL | 0.5 h | 2.26 h | inhibited | Cc1cnn2c(NCCc3c[nH]c4ccccc34)cc(-c3cncc(F)c3)nc12 [I-70, 5-(5-Fluoro-3-pyridyl)-N-[2-(1H-indol-3-yl)ethyl]-3-methyl-pyrazolo[1,5-a]pyrimidin-7-amine] | decreased | increased | inhibited | inhibited | inhibited
